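Exposure lasted 48 hours, with cells grown in 96-well plates and compounds tested at five concentrations. Here, GI50 denotes the concentration required for 50% inhibition of growth.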 The source made the active and inactive calls. Cut-off read from the data, not from the text of the source: active = GI50 up to about 1.1 µM and inactive = higher.
Experiments:
Test in all cases: DTP human tumour cell line panel, 48 h
NCI-H460 = system: NCI-H460
DMS-114 = system: DMS-114
UACC-62 = system: UACC-62
LXFL 529 = system: LXFL 529
SK-MEL-2 = system: SK-MEL-2
A549 = system: A549
A498 = system: A498
UO-31 = system: UO-31
EKVX = system: EKVX
M19-MEL = system: M19-MEL
KM12 = system: KM12
K562 = system: K562
SW-620 = system: SW-620
SNB-78 = system: SNB-78
MOLT-4 = system: MOLT-4
HT-29 = system: HT-29
SF-268 = system: SF-268
HCC 2998 = system: HCC 2998
CCRF-CEM = system: CCRF-CEM
XF498 = system: XF498
NCI-H522 = system: NCI-H522
OVCAR-8 = system: OVCAR-8
HCT-15 = system: HCT-15
DLD-1 = system: DLD-1
RXF 393 = system: RXF 393
RXF 631 = system: RXF 631
HL-60 = system: HL-60
RPMI-8226 = system: RPMI-8226
HOP-18 = system: HOP-18
ACHN = system: ACHN
HOP-62 = system: HOP-62
M14 = system: M14
COLO 205 = system: COLO 205
LOX IMVI = system: LOX IMVI
DMS-273 = system: DMS-273
CAKI-1 = system: CAKI-1
Malme-3M = system: Malme-3M
IGROV-1 = system: IGROV-1
SK-OV-3 = system: SK-OV-3
HOP-92 = system: HOP-92
SN12C = system: SN12C
UACC-257 = system: UACC-257
U-251 = system: U-251
SNB-19 = system: SNB-19
KM-20L2 = system: KM-20L2
NCI-H23 = system: NCI-H23
786-0 = system: 786-0
TK-10 = system: TK-10
SF-295 = system: SF-295
SK-MEL-5 = system: SK-MEL-5
HCT-116 = system: HCT-116
SNB-75 = system: SNB-75
OVCAR-3 = system: OVCAR-3
NCI-H226 = system: NCI-H226
SK-MEL-28 = system: SK-MEL-28
SR = system: SR
OVCAR-5 = system: OVCAR-5

CCOC(=O)c1c[nH]c2c(ccc3nn(C)nc32)c1=O
GI50 (NCI-H460): 96.4 µM (inactive)
GI50 (DMS-114): 49.8 µM (inactive)
GI50 (UACC-62): > 100 µM (inactive)
GI50 (LXFL 529): > 100 µM (inactive)
GI50 (SK-MEL-2): 19.4 µM (inactive)
GI50 (A549): 34 µM (inactive)
GI50 (A498): > 100 µM (inactive)
GI50 (UO-31): > 100 µM (inactive)
GI50 (EKVX): > 100 µM (inactive)
GI50 (M19-MEL): > 100 µM (inactive)
GI50 (KM12): > 100 µM (inactive)
GI50 (K562): 49.7 µM (inactive)
GI50 (SW-620): 20.1 µM (inactive)
GI50 (SNB-78): 15.5 µM (inactive)
GI50 (MOLT-4): > 100 µM (inactive)
GI50 (HT-29): > 100 µM (inactive)
GI50 (SF-268): > 100 µM (inactive)
GI50 (HCC 2998): > 100 µM (inactive)
GI50 (CCRF-CEM): 34 µM (inactive)
GI50 (XF498): > 100 µM (inactive)
GI50 (NCI-H522): > 100 µM (inactive)
GI50 (OVCAR-8): > 100 µM (inactive)
GI50 (HCT-15): 41 µM
GI50 (DLD-1): 50.4 µM (inactive)
GI50 (RXF 393): 30.4 µM (inactive)
GI50 (RXF 631): > 100 µM (inactive)
GI50 (HL-60): 57.3 µM (inactive)
GI50 (RPMI-8226): 25.6 µM (inactive)
GI50 (HOP-18): > 100 µM (inactive)
GI50 (ACHN): > 100 µM (inactive)
GI50 (HOP-62): > 100 µM (inactive)
GI50 (M14): > 100 µM (inactive)
GI50 (COLO 205): 38.3 µM (inactive)
GI50 (LOX IMVI): 10 µM (inactive)
GI50 (DMS-273): 19.9 µM (inactive)
GI50 (CAKI-1): > 100 µM (inactive)
GI50 (Malme-3M): > 100 µM (inactive)
GI50 (IGROV-1): > 100 µM (inactive)
GI50 (SK-OV-3): > 100 µM (inactive)
GI50 (HOP-92): > 100 µM (inactive)
GI50 (SN12C): > 100 µM (inactive)
GI50 (UACC-257): > 100 µM (inactive)
GI50 (U-251): 25.8 µM (inactive)
GI50 (SNB-19): > 100 µM (inactive)
GI50 (KM-20L2): > 100 µM (inactive)
GI50 (NCI-H23): > 100 µM (inactive)
GI50 (786-0): > 100 µM (inactive)
GI50 (TK-10): > 100 µM (inactive)
GI50 (SF-295): > 100 µM (inactive)
GI50 (SK-MEL-5): > 100 µM (inactive)
GI50 (HCT-116): 24.9 µM (inactive)
GI50 (SNB-75): > 100 µM (inactive)
GI50 (OVCAR-3): > 100 µM (inactive)
GI50 (NCI-H226): > 100 µM (inactive)
GI50 (SK-MEL-28): > 100 µM (inactive)
GI50 (SR): 84.1 µM (inactive)
GI50 (OVCAR-5): > 100 µM (inactive)
